The text below walks through data of patent publication US9169254B2, “Spiroimidazolone derivative” (Chugai Seiyaku Kabushiki Kaisha, priority 2009, dated 2015).

This test deals with T1, human PTH1 receptor (Homo sapiens, UniProt Q03431).
T1 sequence (Q03431 27-593): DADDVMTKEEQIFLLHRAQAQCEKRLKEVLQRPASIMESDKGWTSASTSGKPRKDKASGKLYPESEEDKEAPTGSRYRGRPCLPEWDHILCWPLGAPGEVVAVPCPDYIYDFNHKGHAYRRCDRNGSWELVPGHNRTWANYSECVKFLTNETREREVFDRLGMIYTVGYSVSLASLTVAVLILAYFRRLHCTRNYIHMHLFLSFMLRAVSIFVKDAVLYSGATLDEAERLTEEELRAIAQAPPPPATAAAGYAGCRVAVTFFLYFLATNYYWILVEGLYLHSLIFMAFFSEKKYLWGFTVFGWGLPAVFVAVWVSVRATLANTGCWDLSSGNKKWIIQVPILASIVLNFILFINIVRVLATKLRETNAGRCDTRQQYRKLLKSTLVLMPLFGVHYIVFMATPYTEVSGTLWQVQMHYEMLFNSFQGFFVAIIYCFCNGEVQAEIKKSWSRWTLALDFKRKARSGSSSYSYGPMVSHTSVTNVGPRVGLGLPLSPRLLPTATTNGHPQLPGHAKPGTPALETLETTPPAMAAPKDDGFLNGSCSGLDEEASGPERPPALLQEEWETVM
The test can be described thus: In vitro cAMP signal activity in HKRK-B7 cells (LLC-PK1 cells overexpressing the human PTH1 receptor). Format: cell-based. The note with it: HKRK-B7 cells; compound at 1×10^−3 M; cAMP produced as percentage of that produced by hPTH(1-34) at 100 nM.
In the case of `O=C(c1cccc(C2=NC3(CCN(S(=O)(=O)c4cccc(Cl)c4)CC3)C(=O)N2)c1)N1CCOCC1` [Compound 348, 8-(3-Chloro-benzenesulfonyl)-2-[3-(morpholine-4-carbonyl)-phenyl]-1,3,8-triaza-spiro[4.5]dec-1-en-4-one], the “cAMP production activity (%)” value stood at 5.6%.
To `CN(C(=O)c1cccc(C2=NC3(CCN(S(=O)(=O)c4cccc(Cl)c4)CC3)C(=O)N2)c1)c1ccccc1` [Compound 349, 3-[8-(3-chloro-benzenesulfonyl)-4-oxo-1,3,8-triaza-spiro[4.5]dec-1-en-2-yl]-N-methyl-N-phenyl-benzamide] belongs 11%; to `O=C(NCc1ccccc1)c1cccc(C2=NC3(CCN(S(=O)(=O)c4cccc(Cl)c4)CC3)C(=O)N2)c1` [Compound 350, N-benzyl-3-[8-(3-chloro-benzenesulfonyl)-4-oxo-1,3,8-triaza-spiro[4.5]dec-1-en-2-yl]-benzamide], 5.5%.
For `CN(C)C(=O)c1cccc(C2=NC3(CCN(S(=O)(=O)c4cccc(Cl)c4)CC3)C(=O)N2)c1` [Compound 351, 3-[8-(3-chloro-benzenesulfonyl)-4-oxo-1,3,8-triaza-spiro[4.5]dec-1-en-2-yl]-N,N-dimethyl-benzamide], the “cAMP production activity (%)” value is listed as 7.4%.
Turning to `Cc1cc(C(=O)N2CCN(S(C)(=O)=O)CC2)ccc1CCS(=O)(=O)N1CCC2(CC1)N=C(c1cccc(C(F)(F)F)c1)NC2=O` [Compound 352, 8-{2-[4-(4-Methanesulfonyl-piperazine-1-carbonyl)-2-methyl-phenyl]-ethanesulfonyl}-2-(3-trifluoromethyl-phenyl)-1,3,8-triaza-spiro[4.5]dec-1-en-4-one], the “cAMP production activity (%)” value amounted to 19%.
To `CC(=O)N[C@@H]1CCN(C(=O)c2ccc(CCS(=O)(=O)N3CCC4(CC3)N=C(c3cccc(C(F)(F)F)c3)NC4=O)c(C)c2)C1` [Compound 353, N—[(R)-1-(3-methyl-4-{2-[4-oxo-2-(3-trifluoromethyl-phenyl)-1,3,8-triaza-spiro[4.5]dec-1-ene-8-sulfonyl]-ethyl}-benzoyl)-pyrrolidin-3-yl]-acetamide] belongs 120%.
To `Cc1cc(C(=O)N2CCC[C@H]2C(F)(F)F)ccc1CCS(=O)(=O)N1CCC2(CC1)N=C(c1cccc(C(F)(F)F)c1)NC2=O` [Compound 354, 8-{2-[2-methyl-4-((S)-2-trifluoromethyl-pyrrolidine-1-carbonyl)-phenyl]-ethanesulfonyl}-2-(3-trifluoromethyl-phenyl)-1,3,8-triaza-spiro[4.5]dec-1-en-4-one] belongs 27%.
To `Cc1cc(C(=O)N2CC[C@@H](O)C2)ccc1CCS(=O)(=O)N1CCC2(CC1)N=C(c1cccc(C(F)(F)F)c1)NC2=O` [Compound 355, 8-{2-[4-((R)-3-hydroxy-pyrrolidine-1-carbonyl)-2-methyl-phenyl]-ethanesulfonyl}-2-(3-trifluoromethyl-phenyl)-1,3,8-triaza-spiro[4.5]dec-1-en-4-one] belongs 84%; to `Cc1cc(C(=O)N2CCC[C@H]2CO)ccc1CCS(=O)(=O)N1CCC2(CC1)N=C(c1cccc(C(F)(F)F)c1)NC2=O` [Compound 356, 8-{2-[4-((S)-2-hydroxymethyl-pyrrolidine-1-carbonyl)-2-methyl-phenyl]-ethanesulfonyl}-2-(3-trifluoromethyl-phenyl)-1,3,8-triaza-spiro[4.5]dec-1-en-4-one], 78%; to `Cc1cc(C(=O)N2CCC(CCO)CC2)ccc1CCS(=O)(=O)N1CCC2(CC1)N=C(c1cccc(C(F)(F)F)c1)NC2=O` [Compound 357, 8-(2-{4-[4-(2-hydroxy-ethyl)-piperidine-1-carbonyl]-2-methyl-phenyl}-ethanesulfonyl)-2-(3-trifluoromethyl-phenyl)-1,3,8-triaza-spiro[4.5]dec-1-en-4-one], 78%.
Take `Cc1noc(C2CCN(C(=O)c3ccc(CCS(=O)(=O)N4CCC5(CC4)N=C(c4cccc(C(F)(F)F)c4)NC5=O)c(C)c3)CC2)n1` [Compound 358, 8-(2-{2-methyl-4-[4-(3-methyl-[1,2,4]oxadiazol-5-yl)-piperidine-1-carbonyl]-phenyl}-ethanesulfonyl)-2-(3-trifluoromethyl-phenyl)-1,3,8-triaza-spiro[4.5]dec-1-en-4-one]: the “cAMP production activity (%)” value came to 71%.
As to `Cc1cc(C(=O)N2CCN(c3ncccn3)CC2)ccc1CCS(=O)(=O)N1CCC2(CC1)N=C(c1cccc(C(F)(F)F)c1)NC2=O` [Compound 359, 8-{2-[2-methyl-4-(4-pyrimidin-2-yl-piperazine-1-carbonyl)-phenyl]-ethanesulfonyl}-2-(3-trifluoromethyl-phenyl)-1,3,8-triaza-spiro[4.5]dec-1-en-4-one], the “cAMP production activity (%)” value stood at 65%.
On to `Cc1cc(C(=O)N2CCN(S(=O)(=O)N(C)C)CC2)ccc1CCS(=O)(=O)N1CCC2(CC1)N=C(c1cccc(C(F)(F)F)c1)NC2=O` [Compound 360, 4-(3-methyl-4-{2-[4-oxo-2-(3-trifluoromethyl-phenyl)-1,3,8-triaza-spiro[4.5]dec-1-ene-8-sulfonyl]-ethyl}-benzoyl)-piperazine-1-sulfonic acid dimethylamide], for which the “cAMP production activity (%)” value came to 62%.
The figure for `Cc1cc(C(=O)N2CCN(c3ccccn3)CC2)ccc1CCS(=O)(=O)N1CCC2(CC1)N=C(c1cccc(C(F)(F)F)c1)NC2=O` [Compound 361, 8-{2-[2-methyl-4-(4-pyridin-2-yl-piperazine-1-carbonyl)-phenyl]-ethanesulfonyl}-2-(3-trifluoromethyl-phenyl)-1,3,8-triaza-spiro[4.5]dec-1-en-4-one] is 82%; for `Cc1cc(C(=O)N2CCN(CCOCCO)CC2)ccc1CCS(=O)(=O)N1CCC2(CC1)N=C(c1cccc(C(F)(F)F)c1)NC2=O` [Compound 362, 8-[2-(4-{4-[2-(2-hydroxy-ethoxy)-ethyl]-piperazine-1-carbonyl}-2-methyl-phenyl)-ethanesulfonyl]-2-(3-trifluoromethyl-phenyl)-1,3,8-triaza-spiro[4.5]dec-1-en-4-one] it is 97%.
To `Cc1cc(C(=O)N2CCN(CCN3CCOCC3)CC2)ccc1CCS(=O)(=O)N1CCC2(CC1)N=C(c1cccc(C(F)(F)F)c1)NC2=O` [Compound 363, 8-(2-{2-methyl-4-[4-(2-morpholin-4-yl-ethyl)-piperazine-1-carbonyl]-phenyl}-ethanesulfonyl)-2-(3-trifluoromethyl-phenyl)-1,3,8-triaza-spiro[4.5]dec-1-en-4-one] belongs 67%; to `Cc1cc(C(=O)N2CCN(c3nccs3)CC2)ccc1CCS(=O)(=O)N1CCC2(CC1)N=C(c1cccc(C(F)(F)F)c1)NC2=O` [Compound 364, 8-{2-[2-methyl-4-(4-thiazol-2-yl-piperazine-1-carbonyl)-phenyl]-ethanesulfonyl}-2-(3-trifluoromethyl-phenyl)-1,3,8-triaza-spiro[4.5]dec-1-en-4-one], 78%; to `Cc1cc(C(=O)N2CCC(F)(F)CC2)ccc1CCS(=O)(=O)N1CCC2(CC1)N=C(c1cccc(C(F)(F)F)c1)NC2=O` [Compound 365, 8-{2-[4-(4,4-difluoro-piperidine-1-carbonyl)-2-methyl-phenyl]-ethanesulfonyl}-2-(3-trifluoromethyl-phenyl)-1,3,8-triaza-spiro[4.5]dec-1-en-4-one], 81%.
The figure for `Cc1cc(C(=O)N2CCN(CCCO)CC2)ccc1CCS(=O)(=O)N1CCC2(CC1)N=C(c1cccc(C(F)(F)F)c1)NC2=O` [Compound 366, 8-(2-{4-[4-(3-hydroxy-propyl)-piperazine-1-carbonyl]-2-methyl-phenyl}-ethanesulfonyl)-2-(3-trifluoromethyl-phenyl)-1,3,8-triaza-spiro[4.5]dec-1-en-4-one] is 85%; for `Cc1cc(C(=O)N2CCC[C@H]2C(N)=O)ccc1CCS(=O)(=O)N1CCC2(CC1)N=C(c1cccc(C(F)(F)F)c1)NC2=O` [Compound 367, (S)-1-(3-methyl-4-{2-[4-oxo-2-(3-trifluoromethyl-phenyl)-1,3,8-triaza-spiro[4.5]dec-1-ene-8-sulfonyl]-ethyl}-benzoyl)-pyrrolidine-2-carboxylic acid amide] it is 50%.
For `Cc1cc(C(=O)N2CC(F)(F)C(F)(F)C2)ccc1CCS(=O)(=O)N1CCC2(CC1)N=C(c1cccc(C(F)(F)F)c1)NC2=O` [Compound 368, 8-{2-[2-methyl-4-(3,3,4,4-tetrafluoro-pyrrolidine-1-carbonyl)-phenyl]-ethanesulfonyl}-2-(3-trifluoromethyl-phenyl)-1,3,8-triaza-spiro[4.5]dec-1-en-4-one], the “cAMP production activity (%)” value was 38%.
With `Cc1cc(C(=O)N2CCC[C@@H]2C(N)=O)ccc1CCS(=O)(=O)N1CCC2(CC1)N=C(c1cccc(C(F)(F)F)c1)NC2=O` [Compound 369, (R)-1-(3-methyl-4-{2-[4-oxo-2-(3-trifluoromethyl-phenyl)-1,3,8-triaza-spiro[4.5]dec-1-ene-8-sulfonyl]-ethyl}-benzoyl)-pyrrolidine-2-carboxylic acid amide], the “cAMP production activity (%)” value was determined as 43%.
